Like-named read-outs stand apart in the source and are kept apart here.
Experiments:
[1] = tested on: PHA-stimulated splenocytes; test: Proliferative response of PHA-stimulated splenocytes (MTT assay); type: cell-based; conditions: PHA 5 μg/ml, 72 hr; compounds at 5 μM (method says 10 μM); ratio of O.D. versus vehicle control
Summary of the method: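 Readout was MTT absorbance (570 nm, reference 690 nm) after 72 h culture at 37° C. Splenocytes at 1×10^6 cells/well received test compound (10 μM final) alone or plus PHA 5 μg/ml as T-cell mitogen. Values are OD ratios of compound over vehicle control (stimulation index).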

[2] = tested on: Streptococcus pyogenes ATCC19615; test: Antimicrobial MIC, agar dilution
[3] = tested on: HCT116 (colon) carcinoma cell line; test: Anti-tumor properties, MTT; type: cell-based; conditions: Homo sapiens, HCT-116; read-out: IC50 (μM) HCT116 (colon)
Summary of the method: (§1)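 Cells seeded at 10×10^3 per well for 24 h, then exposed to compound in serum-free medium (final up to 100 μM, 0.5% DMSO vehicle) for 72 h in triplicate. Viability by MTT reduction (4 h, SDS solubilised), absorbance 595 nm/ref 620 nm; IC50 from survival curves.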

[4] = tested on: HepG2 (hepatocellular) carcinoma cell line; test: Anti-tumor properties, MTT; type: cell-based; conditions: Homo sapiens, HepG2; read-out: IC50 (μM) HepG2 (liver)
Summary of the method: as §1

[5] = tested on: MCF7 (breast) carcinoma cell line; test: Anti-tumor properties, MTT; type: cell-based; conditions: Homo sapiens, MCF7; read-out: IC50 (μM) MCF7 (breast)
Summary of the method: as §1

[6] = tested on: Salmonella typhi ATCC19430; test: Antimicrobial MIC, agar dilution; type: cell-based; conditions: Salmonella enterica, read-out: Minimum inhibitory concentration (MIC)
[7] = tested on: Pseudomonas aeruginosa ATCC27853; test: Antimicrobial MIC, agar dilution
[8] = tested on: A-549 (lung) carcinoma cell line; test: Anti-tumor properties, MTT; type: cell-based; conditions: Homo sapiens, A549
[9] = tested on: Candida albicans (local isolate); test: Antimicrobial MIC, agar dilution; conditions: Candida albicans, read-out: Minimum inhibitory concentration (MIC)
[10] = tested on: PC3 (prostate) carcinoma cell line; test: Anti-tumor properties, MTT; type: cell-based; conditions: Homo sapiens
[11] = tested on: lipopolysaccharide-stimulated peritoneal macrophages; test: Production of nitric oxide by lipopolysaccharide-stimulated peritoneal macrophages (Greiss reagent); type: cell-based; parameters: Potency (%): % inhibition of nitric oxide production relative to lipopolysaccharide-stimulated macrophages: concentration or dose not given beside the values; conditions: LPS-stimulated peritoneal macrophages; for Nitric oxide (nitrite) concentration, μM (average ± SD): 24 h, nitrite by Greiss reagent
Summary of the method: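 NO output was quantified as accumulated nitrite, reacting supernatant with Greiss reagent (sulfanilamide/α-naphthylamine) and reading at 532 nm. Beforehand, cells had been incubated 24 h at 37° C. in nitrite-free, 0.1% BSA medium with 0.5–10 ng/ml LPS, with or without catecholamines at […].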

[12] = tested on: Staphylococcus aureus ATCC25923; test: Antimicrobial MIC, agar dilution
[13] = ATCC19615, 18 h, read-out: Minimum inhibitory concentration (MIC)
[14] = ATCC19615, read-out: Minimum inhibitory concentration (MIC)
[15] = ATCC27853, 18 h, read-out: Minimum inhibitory concentration (MIC)
[16] = ATCC27853, read-out: Minimum inhibitory concentration (MIC)
[17] = ATCC25923, 18 h, read-out: Minimum inhibitory concentration (MIC)
[18] = ATCC25923, read-out: Minimum inhibitory concentration (MIC)

Row | SMILES | Stimulation Index (average ± SD) [1] | MIC [2, 13] [µg/mL] | MIC [2, 14] [µM] | IC50 [3] [µM] | IC50 [4] [µM] | IC50 [5] [µM] | MIC ([6]; 18 h) [µg/mL] | MIC [6] [µM] | MIC [7, 15] [µg/mL] | MIC [7, 16] [µM] | IC50 [8] [µM] | MIC ([9]; 18 h) [µg/mL] | MIC [9] [µM] | IC50 [10] [µM] | Potency (%): % inhibition of nitric oxide production relative to lipopolysaccharide-stimulated macrophages [11] [%] | Nitric oxide (nitrite) concentration, μM (average ± SD) [11] [µM] | MIC [12, 17] [µg/mL] | MIC [12, 18] [µM]
1 | COc1cc(/C=C/C(=O)CC(=O)/C=C/c2ccc(OC(=O)CNC(=O)OC(C)(C)C)c(OC)c2)ccc1OC(=O)CNC(=O)OC(C)(C)C [Boc-Gly-Cur, ((1E,6E)-3,5-dioxohepta-1,6-diene-1,7-diyl)bis(2-methoxy-4,1-phenylene) bis(2-((tert-butoxycarbonyl)amino)acetate)] | 2.11 ± 0.16 | 1 | 1.47 | > 100 | > 100 | 17.2 | 0.125 | 0.183 | 0.25 | 0.366 | 80.9 | 0.5 | 0.732 | > 100 | 33.65 | 18.12 ± 1.41 | 0.25 | 0.366
2 | COc1cc(/C=C/C(=O)CC(=O)/C=C/c2ccc(OC(=O)[C@H](C)NC(=O)OC(C)(C)C)c(OC)c2)ccc1OC(=O)[C@H](C)NC(=O)OC(C)(C)C [Boc-L-Ala-Cur, ((1E,6E)-3,5-dioxohepta-1,6-diene-1,7-diyl)bis(2-methoxy-4,1-phenylene) (2S,2′S)-bis(2-((tert-butoxycarbonyl)amino)propanoate)] | 2.71 ± 0.28 | 0.25 | 0.352 | > 100 | > 100 | 25.1 | 0.125 | 0.176 | 1 | 1.41 | > 100 | 1 | 1.41 | > 100 | 22.02 | 21.30 ± 1.72 | 0.125 | 0.176
3 | COc1cc(/C=C/C(=O)CC(=O)/C=C/c2ccc(OC(=O)[C@H](CCC(N)=O)NC(=O)OC(C)(C)C)c(OC)c2)ccc1OC(=O)[C@H](CCC(N)=O)NC(=O)OC(C)(C)C [Boc-L-Gln-Cur, ((1E,6E)-3,5-dioxohepta-1,6-diene-1,7-diyl)bis(2-methoxy-4,1-phenylene) (2S,2′S)-bis(5-amino-2-((tert-butoxycarbonyl)amino)-5-oxopentanoate)] | 2.14 ± 0.23 | 0.25 | 0.303 | > 100 | 70.6 | 8.48 | 0.125 | 0.152 | 1 | 1.21 | 30.9 | 2 | 2.42 | 39.1 | 22.29 | 21.22 ± 1.50 | 0.125 | 0.152
4 | CC[C@H](C)[C@H](NC(=O)OC(C)(C)C)C(=O)Oc1ccc(/C=C/C(=O)CC(=O)/C=C/c2ccc(OC(=O)[C@@H](NC(=O)OC(C)(C)C)[C@@H](C)CC)c(OC)c2)cc1OC [Boc-L-Ile-Cur, ((1E,6E)-3,5-dioxohepta-1,6-diene-1,7-diyl)bis(2-methoxy-4,1-phenylene) (2S,2′S,3S,3′S)-bis(2-((tert-butoxycarbonyl)amino)-3-methylpentanoate)] | 2.07 ± 0.10 | 0.25 | 0.314 | > 100 | > 100 | 49.6 | 0.125 | 0.157 | 1 | 1.26 | > 100 | 2 | 2.52 | > 100 | 23.82 | 20.81 ± 0.68 | 0.125 | 0.157
5 | COc1cc(/C=C/C(=O)CC(=O)/C=C/c2ccc(OC(=O)[C@@H](NC(=O)OC(C)(C)C)C(C)C)c(OC)c2)ccc1OC(=O)[C@@H](NC(=O)OC(C)(C)C)C(C)C [Boc-L-Val-Cur, ((1E,6E)-3,5-dioxohepta-1,6-diene-1,7-diyl)bis(2-methoxy-4,1-phenylene) (2S,2′S)-bis(2-((tert-butoxycarbonyl)amino)-3-methylbutanoate)] | 1.84 ± 0.06 | 2 | 2.61 | > 100 | > 100 | ≥ 100 | 0.25 | 0.326 | 2 | 2.61 | > 100 | 1 | 1.3 | > 100 | 29.35 | 19.29 ± 0.39 | 0.25 | 0.326
6 | COc1cc(/C=C/C(=O)CC(=O)/C=C/c2ccc(OC(=O)CCNC(=O)OC(C)(C)C)c(OC)c2)ccc1OC(=O)CCNC(=O)OC(C)(C)C [Boc-β-Ala-Cur, ((1E,6E)-3,5-dioxohepta-1,6-diene-1,7-diyl)bis(2-methoxy-4,1-phenylene) bis(3-((tert-butoxycarbonyl)amino)propanoate)] | 1.70 ± 0.24 | 0.25 | 0.352 | > 100 | > 100 | 13.2 | 0.5 | 0.703 | 0.25 | 0.352 | > 100 | 0.5 | 0.703 | > 100 | 32.81 | 18.35 ± 1.61 | 0.25 | 0.352
7 | COc1cc(/C=C/C(=O)CC(=O)/C=C/c2ccc(OC(=O)[C@H](C)N)c(OC)c2)ccc1OC(=O)[C@H](C)N.Cl.Cl [HCl-L-Ala-Cur, (2S,2′S)-1,1′-((((1E,6E)-3,5-dioxohepta-1,6-diene-1,7-diyl)bis(2-methoxy-4,1-phenylene))bis(oxy))bis(1-oxopropan-2-aminium) chloride] | 1.14 ± 0.18 | 0.5 | 0.857 | 38.8 | 33.8 | 10.7 | 0.5 | 0.857 | 0.25 | 0.428 | 21.7 | 0.5 | 0.857 | 31.5 | 46.24 | 14.68 ± 1.20 | 0.5 | 0.857
8 | COc1cc(/C=C/C(=O)CC(=O)/C=C/c2ccc(OC(=O)[C@@H](N)CCC(N)=O)c(OC)c2)ccc1OC(=O)[C@@H](N)CCC(N)=O.Cl.Cl [HCl-L-Gln-Cur, (2S,2′S)-1,1′-((((1E,6E)-3,5-dioxohepta-1,6-diene-1,7-diyl)bis(2-methoxy-4,1-phenylene))bis(oxy))bis(5-amino-1,5-dioxopentan-2-aminium) chloride] | 2.22 ± 0.20 | 0.5 | 0.717 | 41 | 39.1 | 9.15 | 0.125 | 0.179 | 0.5 | 0.717 | 21.1 | 0.125 | 0.179 | 34.4 | 20.35 | 21.75 ± 1.31 | 0.25 | 0.358

From patent US10660967B2, “Curcumin conjugates and methods of use thereof” (priority 2016, dated 2020)
